Values of other authors in patent publication US20070032460A1, “Use of voacamine and related compounds in the treatment of malaria” (priority 2005, published 2007).

System: multi-drug resistant tumor cells
Conditions: cited from earlier work

## CC=C1CN(C)C2Cc3c([nH]c4ccccc34)C(c3cc4[nH]c5c(c4cc3OC)CCN3CC4CC(CC)C3C5(C(=O)OC)C4)CC1C2C(=O)OC (stereo not shown) [VOA, Voacamine]
  effect on vinblastine-mediated cytotoxicity: enhance vinblastine-mediated cytotbxicity
